Legend:
HCT116-MTAP-KO = experiment: Cell killing in HCT116 isogenic pair (Cell Titer-Glo viability), MTAP knock-out cells; format: cell-based, human; conditions: Homo sapiens, HCT-116, 144 h, 6 days incubation, 0-10 μM, * = more than 50% viability inhibition at tested concentration without a full curve
From the text: (§1) HCT116 cell line (ATCC, CCL-247) was isolated from the colon of an adult with colon cancer. It has a mutation in codon 13 of the ras proto-oncogene and can be used as a positive control for PCR assays of mutation in this codon. HCT116-MTAP-KO was knocked-out-MTAP-gene based HCT116, and a single clone was passed for this assay. HCT116-mock-RNA-KO was knocked-out-mock-gene based HCT116 with MTAP wildtype genotype. The base medium for HCT116 isogenic pair is RPMI 1640, HEPES (Gibco, 22400105). To make the complete growth medium, added the following components to the base medium: fetal bovine serum to a final concentration of 10% (Gibco, 10099-141C). The cell line was grown in a humidified 5% CO2 atmosphere at 37° C. and regularly tested for the presence of mycoplasma with MpcoAlert™ PLUS Mycoplasma Detection Kit (Lonzak LT07-710).
(§2) • Seeded HCT116-mock-RNA-KO (4E2/well) or HCT116-MTAP-KO (4E2/well) cells into a 96-well plate (Greiner: 655090), 100 μL/well. • Incubated at 37° C., 5% CO2, overnight. • Added 50 μL fresh growth medium containing serial dilution of test compounds for a final test compound concentration of 0-10 μM to each well. • Incubated at 37° C., 5% CO2, 6 days. • The cell viability was detected by Cell Titer-Glo (Promega, G7573). Added 70 μL of CeliTiter-Glo® reagent in each well. • Incubated at room temperature for 10 minutes to stabilize luminescent signal. • Analyzed with Microplate Reader (TECAN, SPARK) and fit IC50 using Prism® 9.

HCT116-mock-RNA-KO = experiment: Cell killing in HCT116 isogenic pair (Cell Titer-Glo viability), mock knock-out cells with MTAP wildtype genotype; format: cell-based, human; conditions: Homo sapiens, HCT-116, 144 h, 6 days incubation, 0-10 μM
From the text: as §1, §2

| SMILES | IC50 (HCT116-MTAP-KO) [nM] | IC50 (HCT116-mock-RNA-KO) [nM] |
| --- | --- | --- |
| Nc1nc2cc(C(=O)N(Cc3ccc(-c4c(F)cncc4F)cn3)[C@@H]3CCCc4cccnc43)[nH]c2c2c1COC2 [Example 1, (R)-5-amino-N-((3′,5′-difluoro-[3,4′-bipyridin]-6-yl)methyl)-N-(5,6,7,8-tetrahydroquinolin-8-yl)-6,8-dihydro-1H-furo[3,4-d]pyrrolo[3,2-b]pyridine-2-carboxamide] | < 1.5 | 4.6 |
| Nc1nc2cc(C(=O)N(Cc3ccc(-c4c(F)cccc4F)cn3)[C@@H]3CCCc4cccnc43)[nH]c2c2c1COC2 [Example 2, (R)-5-amino-N-((5-(2,6-difluorophenyl)pyridin-2-yl)methyl)-N-(5,6,7,8-tetrahydroquinolin-8-yl)-6,8-dihydro-1H-furo[3,4-d]pyrrolo[3,2-b]pyridine-2-carboxamide] | 3.3 | 23 |
| Nc1nc2cc(C(=O)N(Cc3c(F)cccc3F)Cc3c(F)cccc3F)[nH]c2c2c1COC2 [Example 3, 5-amino-N,N-bis(2,6-difluorobenzyl)-6,8-dihydro-1H-furo[3,4-d]pyrrolo[3,2-b]pyridine-2-carboxamide] | 2.4 | 221 |
| CO[C@@H]1CCOC[C@H]1N(Cc1ccc(-c2c(F)cccc2F)cn1)C(=O)c1cc2nc(N)c3c(c2[nH]1)COC3 [Example 4, 5-amino-N-((5-(2,6-difluorophenyl)pyridin-2-yl)methyl)-N-((3R,4R)-4-methoxytetrahydro-2H-pyran-3-yl)-6,8-dihydro-1H-furo[3,4-d]pyrrolo[3,2-b]pyridine-2-carboxamide] | 2.3 | 99 |
| Nc1nc2cc(C(=O)N(Cc3c(F)cccc3F)[C@@H]3CCCc4cccnc43)[nH]c2c2c1COC2 [Example 5, (R)-5-amino-N-(2,6-difluorobenzyl)-N-(5,6,7,8-tetrahydroquinolin-8-yl)-6,8-dihydro-1H-furo[3,4-d]pyrrolo[3,2-b]pyridine-2-carboxamide] | 4 | 76 |
| Nc1nc2cc(C(=O)N(Cc3ccc(-c4c(F)cccc4F)cc3F)[C@@H]3CCCc4cccnc43)[nH]c2c2c1COC2 [Example 6, (R)-5-amino-N-(5,6,7,8-tetrahydroquinolin-8-yl)-N-((2′,3,6′-trifluoro-[1,1′-biphenyl]-4-yl)methyl)-6,8-dihydro-1H-furo[3,4-d]pyrrolo[3,2-b]pyridine-2-carboxamide] | 11 | 40 |
| Nc1nc2cc(C(=O)N(Cc3ncccc3F)Cc3ncccc3F)[nH]c2c2c1COC2 [Example 7, 5-amino-N,N-bis((3-fluoropyridin-2-yl)methyl)-6,8-dihydro-1H-furo[3,4-d]pyrrolo[3,2-b]pyridine-2-carboxamide] | 30 | 3140 |
| COCC(C)N(Cc1c(F)cccc1F)C(=O)c1cc2nc(N)c3c(c2[nH]1)COC3 (centres unmarked) [Example 8, 5-amino-N-(2,6-difluorobenzyl)-N-(1-methoxypropan-2-yl)-6,8-dihydro-1H-furo[3,4-d]pyrrolo[3,2-b]pyridine-2-carboxamide] | 34 | 2750 |
| COCC(COC)N(Cc1c(F)cccc1F)C(=O)c1cc2nc(N)c3c(c2[nH]1)COC3 [Example 9, 5-amino-N-(2,6-difluorobenzyl)-N-(1,3-dimethoxypropan-2-yl)-6,8-dihydro-1H-furo[3,4-d]pyrrolo[3,2-b]pyridine-2-carboxamide] | 46 | 3440 |
| Nc1nc2cc(C(=O)N(Cc3c(F)cncc3F)[C@@H]3CCCc4cccnc43)[nH]c2c2c1COC2 [Example 10, (R)-5-amino-N-((3,5-difluoropyridin-4-yl)methyl)-N-(5,6,7,8-tetrahydroquinolin-8-yl)-6,8-dihydro-1H-furo[3,4-d]pyrrolo[3,2-b]pyridine-2-carboxamide] | 4.6 | 247 |
| N#Cc1cnccc1-c1ccc(CN(C(=O)c2cc3nc(N)c4c(c3[nH]2)COC4)[C@@H]2CCCc3cccnc32)nc1 [Example 11, (R)-5-amino-N-((3′-cyano-[3,4′-bipyridin]-6-yl)methyl)-N-(5,6,7,8-tetrahydroquinolin-8-yl)-6,8-dihydro-1H-furo[3,4-d]pyrrolo[3,2-b]pyridine-2-carboxamide] | 3.8 | 69 |
| Nc1nc2cc(C(=O)N(Cc3ccc(-c4c(F)cccc4F)cn3)[C@@H]3CCOc4ccccc43)[nH]c2c2c1COC2 [Example 12, 5-amino-N-(chroman-4-yl)-N-((5-(2,6-difluorophenyl)pyridin-2-yl)methyl)-6,8-dihydro-1H-furo[3,4-d]pyrrolo[3,2-b]pyridine-2-carboxamide] | 29 | 1910 |
| Nc1nc2cc(C(=O)N(Cc3ccc(-c4c(F)cccc4F)cn3)Cc3c(F)cccc3F)[nH]c2c2c1COC2 [Example 13, 5-amino-N-(2,6-difluorobenzyl)-N-((5-(2,6-difluorophenyl)pyridin-2-yl)methyl)-6,8-dihydro-1H-furo[3,4-d]pyrrolo[3,2-b]pyridine-2-carboxamide] | 4.6 | 251 |
| CO[C@@H]1CCOC[C@H]1N(Cc1ccc(-c2c(F)cccc2F)cc1F)C(=O)c1cc2nc(N)c3c(c2[nH]1)COC3 [Example 14, 5-amino-N-((3R,4R)-4-methoxytetrahydro-2H-pyran-3-yl)-N-((2′,3,6′-trifluoro-[1,1′-biphenyl]-4-yl)methyl)-6,8-dihydro-1H-furo[3,4-d]pyrrolo[3,2-b]pyridine-2-carboxamide] | < 1.5 | 554 |
| CO[C@@H]1CCOC[C@H]1N(Cc1ccc(-c2c(F)cncc2F)cn1)C(=O)c1cc2nc(N)c3c(c2[nH]1)COC3 [Example 15, 5-amino-N-((3′,5′-difluoro-[3,4′-bipyridin]-6-yl)methyl)-N-((3R,4R)-4-methoxytetrahydro-2H-pyran-3-yl)-6,8-dihydro-1H-furo[3,4-d]pyrrolo[3,2-b]pyridine-2-carboxamide] | 8.1 | 225 |
| COCC(COC)N(Cc1ccc(-c2c(F)cccc2F)cn1)C(=O)c1cc2nc(N)c3c(c2[nH]1)COC3 [Example 16, 5-amino-N-((5-(2,6-difluorophenyl)pyridin-2-yl)methyl)-N-(1,3-dimethoxypropan-2-yl)-6,8-dihydro-1H-furo[3,4-d]pyrrolo[3,2-b]pyridine-2-carboxamide] | 1 | 165 |
| C[C@@H](c1ncccn1)N(Cc1ccc(-c2c(F)cccc2F)cn1)C(=O)c1cc2nc(N)c3c(c2[nH]1)COC3 [Example 17, (S)-5-amino-N-((5-(2,6-difluorophenyl)pyridin-2-yl)methyl)-N-(1-(pyrimidin-2-yl)ethyl)-6,8-dihydro-1H-furo[3,4-d]pyrrolo[3,2-b]pyridine-2-carboxamide] | 8.2 | 1050 |
| C[C@H](c1ncccn1)N(Cc1ccc(-c2c(F)cccc2F)cn1)C(=O)c1cc2nc(N)c3c(c2[nH]1)COC3 [Example 18, (R)-5-amino-N-((5-(2,6-difluorophenyl)pyridin-2-yl)methyl)-N-(1-(pyrimidin-2-yl)ethyl)-6,8-dihydro-1H-furo[3,4-d]pyrrolo[3,2-b]pyridine-2-carboxamide] | 1.8 | 96 |
| Nc1nc2cc(C(=O)N(Cc3ccc(-c4c(F)cccc4F)cc3F)[C@@H]3CCOc4cccnc43)[nH]c2c2c1COC2 [Example 19, (R)-5-amino-N-(3,4-dihydro-2H-pyrano[3,2-b]pyridin-4-yl)-N-((2′,3,6′-trifluoro-[1,1′-biphenyl]-4-yl)methyl)-6,8-dihydro-1H-furo[3,4-d]pyrrolo[3,2-b]pyridine-2-carboxamide] | < 1.5 | 185 |
| Nc1nc2cc(C(=O)N(Cc3ccc(-c4c(F)cccc4F)cc3F)[C@H]3CCOc4cccnc43)[nH]c2c2c1COC2 [Example 20, (S)-5-amino-N-(3,4-dihydro-2H-pyrano[3,2-b]pyridin-4-yl)-N-((2′,3,6′-trifluoro-[1,1′-biphenyl]-4-yl)methyl)-6,8-dihydro-1H-furo[3,4-d]pyrrolo[3,2-b]pyridine-2-carboxamide] | 658 | 4000 |
| N#Cc1cc(F)c(CN(C(=O)c2cc3nc(N)c4c(c3[nH]2)COC4)[C@@H]2CCCc3cccnc32)c(F)c1 [Example 21, (R)-5-amino-N-(4-cyano-2,6-difluorobenzyl)-N-(5,6,7,8-tetrahydroquinolin-8-yl)-6,8-dihydro-1H-furo[3,4-d]pyrrolo[3,2-b]pyridine-2-carboxamide] | < 1.5 | 7 |
| N#Cc1cc(F)c(CN(Cc2c(F)cccc2F)C(=O)c2cc3nc(N)c4c(c3[nH]2)COC4)c(F)c1 [Example 22, 5-amino-N-(4-cyano-2,6-difluorobenzyl)-N-(2,6-difluorobenzyl)-6,8-dihydro-1H-furo[3,4-d]pyrrolo[3,2-b]pyridine-2-carboxamide] | < 1.5 | 11 |
